{"source": "patent US9504685B2", "about": "“Method for treating a pulmonary hypertension condition” (Gilead Sciences, Inc., priority 2006, dated 2016)", "tested_on": "subjects with PAH", "assay": "Example 2 (ARIES-1) placebo-controlled Phase III trial, efficacy", "assay_type": "in vivo, human", "settings": "for change from baseline in mean 6MWD at Week 12: subjects who received supplemental oxygen", "experimental": "The primary objective of this study was to determine the effect of ambrisentan on exercise capacity in subjects with pulmonary arterial hypertension (PAH). The secondary objectives of this study were to evaluate effects of ambrisentan on other clinical measures of PAH, as well as safety and tolerability of the study drug.\nStudy drug was provided in round, biconvex, oral tablets that were identical in appearance. Three strengths of active study drug containing 2.5 mg, 5 mg or 10 mg of ambrisentan were used in this study. All study drug was packaged in blister cards. Subjects were instructed to take study drug once daily (q.d.) by mouth (p.o.) in the morning, with or without food.\nThe maximum study duration was up to 14 weeks from the time of initial screening procedures to the final study visit (Week 12). Screening procedures were performed a maximum of 2 weeks prior to the first dose of study drug. The maximum duration of study drug treatment was 12 weeks.\nMen and women, 18 years of age or older, with idiopathic PAH, PAH associated with CTD, e.g., mixed CTD, CREST syndrome, systemic sclerosis (scleroderma), overlap syndrome or systemic lupus erythematosus, or PAH associated with anorexigen use or HIV infection were enrolled in this study. Subjects were to have a documented mean PAP≧25 mmHg, PVR>3 mmHgL/min, and PCWP or LVEDP<15 mmHg. Subjects must have been able to walk a distance of at least 150 m but no more than 450 m during 2 consecutive 6MWTs to be eligible for inclusion in the study.\nAfter a 2 week screening period, eligible subjects were stratified based on the underlying etiology of PAH (idiopathic or non-idiopathic) and were randomized to 1 of 3 treatment groups (placebo, 5 mg or 10 mg ambrisentan) in a ratio of 1:1:1. One blinded dose reduction was permitted during the 12-week treatment period in the event of study drug intolerance (e.g., 10 mg to 5 mg, 5 mg to 2.5 mg, placebo to placebo). Subjects received a daily dose of 2.5 mg ambrisentan only if they reduced from the 5 mg dose group. Subjects were assessed for efficacy and safety at monthly intervals.\nTherefore, after a minimum treatment period of 4 weeks, subjects who met 2 or more of the following predefined early escape criteria may have been removed from the study: • (a) a decrease from baseline of at least 20% in 6MWD; • (b) an increase of 1 or more WHO functional class; • (c) worsening right ventricular failure (e.g., as indicated by increased jugular venous pressure, new or worsening hepatomegaly, ascites or peripheral edema); • (d) rapidly progressing cardiogenic, hepatic or renal failure; and/or • (e) refractory systolic hypotension (systolic blood pressure <85 mmHg).\nThe primary efficacy endpoint was change from baseline in 6MWD evaluated after 12 weeks of treatment compared to placebo.\nThe secondary efficacy endpoints included: • (a) time to clinical worsening of PAH, as defined by the time from randomization to the first occurrence of death, lung transplantation, hospitalization for PAH, atrial septostomy, study discontinuation due to addition of other PAH therapeutic agents, or study discontinuation due to 2 or more early escape criteria; • (b) change from baseline measured after 12 weeks of treatment compared to placebo in: • (i) WHO functional class; • (ii) SF-36® health survey physical functioning scale; • (iii) BDI immediately following exercise; and/or • (iv) an assessment of the safety and tolerability of the study drug; and • (c) change from baseline measured after 12 weeks of treatment compared to placebo in plasma levels of ET-1, BNP and cTnT. Safety Assessments\nFor the ITT population, subjects were considered as belonging to their randomized treatment group, regardless of the actual treatment received.\nThe primary efficacy endpoint was the change from baseline in 6MWD evaluated after 12 weeks of treatment compared to placebo, where the last observation was carried forward. […]", "key": {"[1]": {"settings": "10 mg once daily, baseline to Week 12"}, "[2]": {"settings": "combined 5 mg and 10 mg groups, 12 weeks"}, "[3]": {"settings": "combined 5 mg and 10 mg groups, Week 12"}, "[4]": {"settings": "combined 5 mg and 10 mg groups, baseline to Week 12"}}}
{"smiles": "COC(c1ccccc1)(c1ccccc1)[C@H](Oc1nc(C)cc(C)n1)C(=O)O", "note": "[ambrisentan]", "values": [{"measurement": "Change in SF-36 Social functioning, mean (SD)", "setting": "[1]", "result": "+4.11 ± 11.77"}, {"measurement": "Change in SF-36 Vitality, mean (SD)", "setting": "[1]", "result": "+5.03 ± 10.07"}, {"measurement": "Change in WHO functional class: +1 class", "setting": "[1]", "result": "3 (4.5) subjects (% of ITT population)"}, {"measurement": "Change in WHO functional class: +2 classes", "setting": "[1]", "result": "0 (0.0) subjects (% of ITT population)"}, {"measurement": "Change in WHO functional class: no change", "setting": "[1]", "result": "44 (65.7) subjects (% of ITT population)"}, {"measurement": "Change in WHO functional class: −1 class", "setting": "[1]", "result": "15 (22.4) subjects (% of ITT population)"}, {"measurement": "Change in WHO functional class: −2 classes", "setting": "[1]", "result": "5 (7.5) subjects (% of ITT population)"}, {"measurement": "placebo-adjusted 6MWD increase from baseline at Week 12", "setting": "WHO class I/II subgroup, 5 mg once daily", "result": "+25.6 m"}, {"measurement": "placebo-adjusted 6MWD increase from baseline at Week 12", "setting": "WHO class I/II subgroup, 10 mg once daily", "result": "+42.0 m"}, {"measurement": "placebo-adjusted 6MWD increase from baseline at Week 12", "setting": "WHO class III/IV subgroup, 5 mg once daily", "result": "+34.1 m"}, {"measurement": "placebo-adjusted 6MWD increase from baseline at Week 12", "setting": "WHO class III/IV subgroup, 10 mg once daily", "result": "+56.9 m"}, {"measurement": "placebo-adjusted BDI at Week 12", "setting": "combined 5 mg and 10 mg groups", "result": "−0.6"}, {"measurement": "Clinical worsening event: Atrial septostomy", "setting": "[2]", "result": "0 (0.0) subjects (% of ITT population)"}, {"measurement": "Clinical worsening event: Death", "setting": "[2]", "result": "2 (1.5) subjects (% of ITT population)"}, {"measurement": "Clinical worsening event: Escape criteria", "setting": "[2]", "result": "2 (1.5) subjects (% of ITT population)"}, {"measurement": "Clinical worsening event: Hospitalization for PAH", "setting": "[2]", "result": "4 (3.0) subjects (% of ITT population)"}, {"measurement": "Clinical worsening event: Lung transplantation", "setting": "[2]", "result": "0 (0.0) subjects (% of ITT population)"}, {"measurement": "Clinical worsening event: Study discontinuation due to addition of PAH treatment", "setting": "[2]", "result": "1 (0.7) subjects (% of ITT population)"}, {"measurement": "Clinical worsening: Total subjects with ≧1 event", "setting": "[2]", "result": "6 (4.5) subjects (% of ITT population)"}, {"measurement": "Change in 6MWD from baseline to Week 12, mean", "setting": "combined 5 mg and 10 mg groups, ITT population", "result": "+33.2 meters"}, {"measurement": "subjects who deteriorated by at least 1 WHO class", "setting": "[3]", "result": 3.0, "unit": "%"}, {"measurement": "subjects who had an improvement of 2 WHO classes", "setting": "[3]", "result": 4.5, "unit": "%"}, {"measurement": "Change in SF-36 Bodily pain, mean (SD)", "setting": "[4]", "result": "+0.42 ± 12.81"}, {"measurement": "Change in SF-36 General health, mean (SD)", "setting": "[4]", "result": "+1.66 ± 8.74"}, {"measurement": "Change in SF-36 Mental component summary, mean (SD)", "setting": "[4]", "result": "+1.30 ± 11.89"}, {"measurement": "Change in SF-36 Mental health, mean (SD)", "setting": "[4]", "result": "+1.18 ± 11.23"}, {"measurement": "Change in SF-36 Physical component summary, mean (SD)", "setting": "[4]", "result": "+3.34 ± 8.40"}, {"measurement": "Change in SF-36 Role-emotional, mean (SD)", "setting": "[4]", "result": "+2.19 ± 15.71"}, {"measurement": "Change in SF-36 Role-physical, mean (SD)", "setting": "[4]", "result": "+5.45 ± 10.47"}, {"measurement": "Change in SF-36 Social functioning, mean (SD)", "setting": "[4]", "result": "+2.61 ± 12.78"}, {"measurement": "Change in SF-36 Vitality, mean (SD)", "setting": "[4]", "result": "+3.71 ± 10.11"}, {"measurement": "Change in WHO functional class: +1 class", "setting": "[4]", "result": "4 (3.0) subjects (% of ITT population)"}, {"measurement": "Change in WHO functional class: +2 classes", "setting": "[4]", "result": "0 (0.0) subjects (% of ITT population)"}, {"measurement": "Change in WHO functional class: no change", "setting": "[4]", "result": "91 (67.9) subjects (% of ITT population)"}, {"measurement": "Change in WHO functional class: −1 class", "setting": "[4]", "result": "33 (24.6) subjects (% of ITT population)"}, {"measurement": "Change in WHO functional class: −2 classes", "setting": "[4]", "result": "6 (4.5) subjects (% of ITT population)"}, {"measurement": "placebo-adjusted 6MWD increase from baseline at Week 12", "setting": "female subjects, 5 mg once daily", "result": "+30.9 m"}, {"measurement": "placebo-adjusted 6MWD increase from baseline at Week 12", "setting": "female subjects, 10 mg once daily", "result": "+57.7 m"}, {"measurement": "placebo-adjusted 6MWD increase from baseline at Week 12", "setting": "idiopathic PAH subgroup, 5 mg once daily", "result": "+42.9 m"}, {"measurement": "placebo-adjusted 6MWD increase from baseline at Week 12", "setting": "idiopathic PAH subgroup, 10 mg once daily", "result": "+56.9 m"}, {"measurement": "placebo-adjusted 6MWD increase from baseline at Week 12", "setting": "male subjects, 5 mg once daily", "result": "+19.9 m"}, {"measurement": "placebo-adjusted 6MWD increase from baseline at Week 12", "setting": "male subjects, 10 mg once daily", "result": "+13.1 m"}, {"measurement": "placebo-adjusted 6MWD increase from baseline at Week 12", "setting": "non-idiopathic PAH subgroup, 5 mg once daily", "result": "+10.2 m"}, {"measurement": "placebo-adjusted 6MWD increase from baseline at Week 12", "setting": "non-idiopathic PAH subgroup, 10 mg once daily", "result": "+43.0 m"}, {"measurement": "placebo-adjusted 6MWD increase from baseline at Week 12", "setting": "subjects not receiving calcium channel blockers, 5 mg once daily", "result": "+38.7 m"}, {"measurement": "placebo-adjusted 6MWD increase from baseline at Week 12", "setting": "subjects not receiving calcium channel blockers, 10 mg once daily", "result": "+67.9 m"}, {"measurement": "reduction in the probability of clinical worsening (hazard ratio) compared to placebo", "setting": "subjects receiving ambrisentan (combined group), 12 weeks", "result": 50, "unit": "%"}, {"measurement": "subjects hospitalized for PAH", "setting": "subjects receiving ambrisentan (combined), 12 weeks", "result": 3.0, "unit": "%"}, {"measurement": "placebo-adjusted 6MWD increase from baseline at Week 12", "setting": "subjects receiving calcium channel blockers, 5 mg once daily", "result": "+15.1 m"}, {"measurement": "placebo-adjusted 6MWD increase from baseline at Week 12", "setting": "subjects receiving calcium channel blockers, 10 mg once daily", "result": "+19.6 m"}, {"measurement": "change from baseline in mean 6MWD at Week 12", "setting": "5 mg once daily", "result": "+21.1 m"}, {"measurement": "change from baseline in mean 6MWD at Week 12", "setting": "10 mg once daily", "result": "+48.0 m"}]}
